Data published in the supplement of paper PMC11281043.

Assays:
Details in all cases: exposure: 6-8 hpf to 5 dpf, scored at 6 dpf
Danio rerio embryo/larva [1] = assay: max % larvae generally abnormal across tested concentrations; higher = more toxic; extreme values may be limits of the assay
Danio rerio embryo/larva [2] = assay: max % larvae with spinal defects across tested concentrations; higher = more toxic; extreme values may be limits of the assay
Danio rerio embryo/larva [3] = assay: max % larvae with edema across tested concentrations; higher = more toxic; extreme values may be limits of the assay
Danio rerio embryo/larva [4] = assay: max % larvae with blood pooling across tested concentrations; higher = more toxic; extreme values may be limits of the assay
Danio rerio embryo/larva [5] = assay: max % larvae with craniofacial defects across tested concentrations; higher = more toxic; extreme values may be limits of the assay
Danio rerio embryo/larva [6] = assay: BMC general abnormality; higher = less potent
Procedure: (§1)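 Zebrafish embryos (with chorion) were exposed from 6-8 hpf to each PFAS (8-point half-log series, top concentration up to 100 uM, 0.4% DMSO, sealed plates, 26 C; n = 6 embryos per concentration), rinsed at 5 dpf and scored at 6 dpf by two blinded observers for mortality, hatching and malformations. Endpoint scores are the % of living larvae affected (dead larvae excluded; […]). Curves were fitted with tcpl (cutoff 16%), and the BMC is the concentration at a benchmark response of 21.6%.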

Danio rerio embryo/larva [7] = assay: max % larvae with uninflated swim bladder across tested concentrations; higher = more toxic; extreme values may be limits of the assay
Danio rerio embryo/larva [8] = assay: max % larvae with abnormal position across tested concentrations; higher = more toxic; extreme values may be limits of the assay
Danio rerio embryo/larva [9] = assay: max % larvae with tail defects across tested concentrations; higher = more toxic; extreme values may be limits of the assay
Danio rerio embryo/larva [10] = assay: max % larvae with pigmentation defects across tested concentrations; higher = more toxic
Danio rerio embryo/larva [11] = assay: BMC any abnormality; max tested concentration (log10 uM): 2; higher = less potent
Procedure: as §1

Danio rerio embryo/larva [12] = assay: BMC swim bladder non-inflation; higher = less potent
Procedure: as §1

Danio rerio embryo/larva [13] = assay: max % larvae unhatched across tested concentrations; max tested concentration (log10 uM): 2; higher = more toxic
Danio rerio embryo/larva [14] = assay: max % larvae with any abnormality across tested concentrations; max tested concentration (log10 uM): 2; higher = more toxic; extreme values may be limits of the assay
Danio rerio embryo/larva [15] = assay: max % larvae dead across tested concentrations; max tested concentration (log10 uM): 2; higher = more toxic; extreme values may be limits of the assay
Danio rerio embryo/larva [16] = assay: BMC edema; higher = less potent
Procedure: as §1

[17] = max tested concentration (log10 uM): 2
[18] = max tested concentration (log10 uM): 0

Row | Structure (SMILES) | BMC any abnormality (Danio rerio embryo/larva [11]) | max % larvae unhatched across tested concentrations (Danio rerio embryo/larva [13]) | max % larvae (Danio rerio embryo/larva [14]) | max % larvae dead across tested concentrations (Danio rerio embryo/larva [15]) | also measured
1 | C=CC(=O)OCCC(F)(F)C(F)(F)C(F)(F)C(F)(F)F [2-(Perfluorobutyl)ethyl acrylate] (max tested concentration (log10 uM): 2) |  |  |  |  | max % larvae generally abnormal across tested concentrations (Danio rerio embryo/larva [1]): 50%; max % larvae (Danio rerio embryo/larva [2]): 0%; max % larvae (Danio rerio embryo/larva [3]): 0%; max % larvae (Danio rerio embryo/larva [4]): 0%; max % larvae (Danio rerio embryo/larva [5]): 0%; BMC general abnormality (Danio rerio embryo/larva [6]): 74.8 µM; max % larvae (Danio rerio embryo/larva [7]): 100%; max % larvae (Danio rerio embryo/larva [8]): 0%; max % larvae (Danio rerio embryo/larva [9]): 0%; max % larvae (Danio rerio embryo/larva [10]): 0%
2 | OCCCC(F)(F)C(F)(F)C(F)(F)C(F)(F)C(F)(F)C(F)(F)C(F)(F)F [7:3 Fluorotelomer alcohol] | 38.3 µM | 0% | 45.8% |  | BMC swim bladder non-inflation (Danio rerio embryo/larva [12]; [17]): 99 µM
3 | Cc1ccc(S(=O)(=O)OCC(F)(F)C(F)(F)C(F)(F)C(F)(F)C(F)(F)C(F)F)cc1 [1H,1H,7H-Perfluoroheptyl 4-methylbenzenesulfonate] | 20.3 µM | 0% | 75% | 0% | BMC swim bladder non-inflation (Danio rerio embryo/larva [12]; [17]): 8.97 µM
4 | O=C(O)C(F)(F)C(F)(F)C(F)(F)C(F)(F)C(F)(F)C(F)(F)C(F)(F)C(F)(F)C(F)(F)C(F)(F)F [Perfluoroundecanoic acid] (max tested concentration (log10 uM): 0.477121) |  |  |  |  | max % larvae generally abnormal across tested concentrations (Danio rerio embryo/larva [1]): 25%; max % larvae (Danio rerio embryo/larva [2]): 8.33%; max % larvae (Danio rerio embryo/larva [3]): 25%; max % larvae (Danio rerio embryo/larva [4]): 8.33%; max % larvae (Danio rerio embryo/larva [5]): 16.7%; BMC general abnormality (Danio rerio embryo/larva [6]): 2.74 µM; max % larvae (Danio rerio embryo/larva [7]): 16.7%; max % larvae (Danio rerio embryo/larva [8]): 8.33%; max % larvae (Danio rerio embryo/larva [9]): 12.5%; max % larvae (Danio rerio embryo/larva [10]): 0%
5 | C=C(C)C(=O)OCC(F)(F)C(F)(F)C(F)(F)C(F)F [1H,1H,5H-Perfluoropentyl methacrylate] | 27.9 µM | 0% | 66.7% | 66.7% | 
6 | CNS(=O)(=O)C(F)(F)C(F)(F)C(F)(F)C(F)(F)C(F)(F)C(F)(F)C(F)(F)C(F)(F)F [N-Methylperfluorooctanesulfonamide] | 0.702 µM | 0% | 95.8% |  | BMC swim bladder non-inflation (Danio rerio embryo/larva [12]; [17]): 0.439 µM; BMC edema (Danio rerio embryo/larva [16]; [17]): 20.1 µM
7 | O=C(O)C(F)(F)C(F)(F)C(F)(F)C(F)(F)C(F)(F)C(F)(F)C(F)(F)C(F)(F)F [Perfluorononanoic acid] (max tested concentration (log10 uM): 2) |  |  |  |  | max % larvae generally abnormal across tested concentrations (Danio rerio embryo/larva [1]): 75%; max % larvae (Danio rerio embryo/larva [2]): 25%; max % larvae (Danio rerio embryo/larva [3]): 75%; max % larvae (Danio rerio embryo/larva [4]): 16.7%; max % larvae (Danio rerio embryo/larva [5]): 100%; BMC general abnormality (Danio rerio embryo/larva [6]): 28 µM; max % larvae (Danio rerio embryo/larva [7]): 100%; max % larvae (Danio rerio embryo/larva [8]): 37.5%; max % larvae (Danio rerio embryo/larva [9]): 50%; max % larvae (Danio rerio embryo/larva [10]): 0%
8 | FC(F)C(F)(F)COCC1CO1 (centres undefined) [((2,2,3,3-Tetrafluoropropoxy)methyl)oxirane] | 26.5 µM | 0% | 91.7% | 0% | BMC swim bladder non-inflation (Danio rerio embryo/larva [12]; [17]): 27.7 µM; BMC edema (Danio rerio embryo/larva [16]; [17]): 32.6 µM
9 | FC(F)(F)C(F)(F)C(F)(F)C(F)(F)C(F)(F)CCI [1-Iodo-1H,1H,2H,2H-perfluoroheptane] (max tested concentration (log10 uM): 2) |  |  |  |  | max % larvae generally abnormal across tested concentrations (Danio rerio embryo/larva [1]): 42.9%; max % larvae (Danio rerio embryo/larva [2]): 4.17%; max % larvae (Danio rerio embryo/larva [3]): 35.7%; max % larvae (Danio rerio embryo/larva [4]): 0%; max % larvae (Danio rerio embryo/larva [5]): 14.3%; BMC general abnormality (Danio rerio embryo/larva [6]): 31.4 µM; max % larvae (Danio rerio embryo/larva [7]): 35.7%; max % larvae (Danio rerio embryo/larva [8]): 10.7%; max % larvae (Danio rerio embryo/larva [9]): 7.14%; max % larvae (Danio rerio embryo/larva [10]): 0%
10 | OCC(F)(F)C(F)(F)C(F)(F)C(F)(F)C(F)(F)C(F)(F)F [6:1 Fluorotelomer alcohol] | 73.3 µM | 0% | 75% |  | BMC edema (Danio rerio embryo/larva [16]; [17]): 94.1 µM
11 | O=C(O)C(F)(F)OC(F)(F)C(F)(F)OC(F)(F)C(F)(F)OC(F)(F)C(F)(F)C(F)(F)C(F)(F)F [Perfluoro-3,6,9-trioxatridecanoic acid] (max tested concentration (log10 uM): 1) |  |  |  |  | max % larvae generally abnormal across tested concentrations (Danio rerio embryo/larva [1]): 50%; max % larvae (Danio rerio embryo/larva [2]): 0%; max % larvae (Danio rerio embryo/larva [3]): 50%; max % larvae (Danio rerio embryo/larva [4]): 16.7%; max % larvae (Danio rerio embryo/larva [5]): 0%; BMC general abnormality (Danio rerio embryo/larva [6]): 1.51 µM; max % larvae (Danio rerio embryo/larva [7]): 100%; max % larvae (Danio rerio embryo/larva [8]): 50%; max % larvae (Danio rerio embryo/larva [9]): 0%; max % larvae (Danio rerio embryo/larva [10]): 0%
12 | NS(=O)(=O)C(F)(F)C(F)(F)C(F)(F)C(F)(F)C(F)(F)C(F)(F)C(F)(F)C(F)(F)F [Perfluorooctanesulfonamide] | 0.261 µM | 0% | 100% |  | BMC swim bladder non-inflation (Danio rerio embryo/larva [12]; [18]): 0.313 µM; BMC edema (Danio rerio embryo/larva [16]; [18]): 0.563 µM
13 | O=C(Cl)C(F)(F)C(F)(F)C(F)(F)C(F)(F)C(F)(F)C(F)(F)C(F)(F)C(F)(F)F [Perfluorononanoyl chloride] | 25 µM | 0% | 100% | 100% | 
14 | NCC(F)(F)C(F)(F)C(F)(F)C(F)(F)C(F)(F)C(F)(F)F [1H,1H-Perfluoroheptylamine] | 79.2 µM | 0% | 33.3% | 0% | BMC edema (Danio rerio embryo/larva [16]; [17]): 79.2 µM
15 | O=C(O)CCC(F)(F)C(F)(F)C(F)(F)F [3:3 Fluorotelomer carboxylic acid] | 87.8 µM | 0% | 25% | 0% | 
16 | C=CC(=O)OCCC(F)(F)C(F)(F)C(F)(F)C(F)(F)F [2-(Perfluorobutyl)ethyl acrylate] | 26.3 µM | 0% | 100% |  | BMC swim bladder non-inflation (Danio rerio embryo/larva [12]; [17]): 75.7 µM

Row | Structure (SMILES) | BMC any abnormality (Danio rerio embryo/larva [11]) | max % larvae unhatched across tested concentrations (Danio rerio embryo/larva [13]) | max % larvae (Danio rerio embryo/larva [14]) | max % larvae dead across tested concentrations (Danio rerio embryo/larva [15]) | also measured
17 | FC(F)(F)C(F)(F)C(F)(F)C(F)(F)C(F)(F)C(F)(F)C(F)(F)I [1-Iodopentadecafluoroheptane] | 10.9 µM | 0% | 83.3% | 16.7% | BMC swim bladder non-inflation (Danio rerio embryo/larva [12]; [17]): 56.7 µM
18 | NCC(F)(F)C(F)(F)C(F)(F)C(F)(F)C(F)(F)C(F)(F)F [1H,1H-Perfluoroheptylamine] (max tested concentration (log10 uM): 2) |  |  |  |  | max % larvae generally abnormal across tested concentrations (Danio rerio embryo/larva [1]): 33.3%; max % larvae (Danio rerio embryo/larva [2]): 0%; max % larvae (Danio rerio embryo/larva [3]): 33.3%; max % larvae (Danio rerio embryo/larva [4]): 0%; max % larvae (Danio rerio embryo/larva [5]): 0%; BMC general abnormality (Danio rerio embryo/larva [6]): 79.2 µM; max % larvae (Danio rerio embryo/larva [7]): 0%; max % larvae (Danio rerio embryo/larva [9]): 0%; max % larvae (Danio rerio embryo/larva [10]): 0%
19 | O=C(O)C(F)(F)C(F)(F)C(F)(F)C(F)(F)C(F)(F)C(F)(F)C(F)(F)F [Sodium perfluorooctanoate] |  | 0% | 0% | 0% | 
20 | OCC(F)(F)C(F)(F)C(F)(F)CO [Hexafluoroamylene glycol] |  | 0% | 0% | 0% | 
21 | FC(F)(F)C(F)(F)C(F)(F)CI [Heptafluorobutyl iodide] |  | 0% | 0% | 0% | 
22 | O=C(O)C(F)(F)C(F)(F)C(F)(F)C(F)(F)F [Perfluoropentanoic acid] |  | 0% | 25% | 0% | 
23 | O=C(Cl)C(F)(F)C(F)(F)C(F)(F)C(F)(F)C(F)(F)C(F)(F)C(F)(F)F [Pentadecafluorooctanoyl chloride] |  | 0% | 16.7% | 0% | 
24 | O=P(O)(O)CCC(F)(F)C(F)(F)C(F)(F)C(F)(F)C(F)(F)C(F)(F)F [2-(Perfluorohexyl)ethylphosphonic acid] | 21.9 µM | 0% | 95.8% |  | BMC edema (Danio rerio embryo/larva [16]; [17]): 22.5 µM
25 | O=S(=O)(O)C(F)(F)C(F)(F)C(F)(F)C(F)(F)F [Potassium perfluorobutanesulfonate] |  | 0% | 8.33% | 0% | 
26 | O=S(=O)(O)C(F)(F)C(F)(F)C(F)(F)C(F)(F)C(F)(F)C(F)(F)F [Potassium perfluorohexanesulfonate] | 31.3 µM | 0% | 90.9% |  | 
27 | O=S(=O)(O)CCC(F)(F)C(F)(F)C(F)(F)C(F)(F)C(F)(F)C(F)(F)C(F)(F)C(F)(F)F [8:2 Fluorotelomer sulfonic acid] |  | 0% | 0% | 0% | 
28 | CN(C(=O)C(F)(F)C(F)(F)C(F)(F)F)[Si](C)(C)C [N-Methyl-N-trimethylsilylheptafluorobutyramide] |  | 0% | 0% | 0% | 
29 | OCCC(F)(F)C(F)(F)C(F)(F)C(F)(F)F [4:2 Fluorotelomer alcohol] |  | 0% | 4.17% | 0% | 
30 | C=C(C)C(=O)OCCC(F)(F)C(F)(F)C(F)(F)C(F)(F)C(F)(C(F)(F)F)C(F)(F)F [(Perfluoro-5-methylhexyl)ethyl 2-methylprop-2-enoate] |  | 0% | 0% | 0% | 
31 | O=S(=O)(O)CCC(F)(F)C(F)(F)C(F)(F)C(F)(F)C(F)(F)C(F)(F)F [6:2 Fluorotelomer sulfonic acid] |  | 0% | 16.7% | 16.7% | 
32 | FC(F)(F)C(F)(F)C(F)(F)C(F)(F)C(F)(F)CCI [1-Iodo-1H,1H,2H,2H-perfluoroheptane] | 29.3 µM | 0% | 72.9% |  | BMC swim bladder non-inflation (Danio rerio embryo/larva [12]; [17]): 31.5 µM; BMC edema (Danio rerio embryo/larva [16]; [17]): 31.5 µM
